Test system: mice
Assay: IFN-γ ELISpot and supernatant cytokines of peptide-stimulated splenocytes after HA mRNA vaccination
Type: in vivo, BALB/cJ and C57B1/6J mice
Experimental: Further experiments to evaluate the dose-sparing potential of AMG1541 were performed for influenza vaccination.^34,35 The immunogenicity of AMG1541 was compared to the clinical benchmark SM-102 by formulating each into LNPs containing hemagglutinin (HA) (A/Tasmania/503/2020 H3N2) mRNA. BALB/cJ mice were vaccinated with […] of these mRNA LNPs and the quality of humoral and cellular immunity following vaccination was evaluated. Enhancing each component of immunity contributes to improving vaccine protection—humoral immunity provides protection against initial infection while cellular immunity improves the clearance of breakthrough infections. […] Male and female mice vaccinated with AMG1541 had 15.8- and 6.8-fold higher endpoint titers, respectively (FIG. 13C). […] Serum cytokines were examined 6 hours after the boost dose to determine whether the enhanced immunogenicity of AMG1541 also led to increased systemic inflammation (FIGS. 20A-20C). […]
IFN-γ ELISpot. […] Cells were then pelleted, resuspended in PBS+1% BSA, and counted using a countess 3 automated cell counter (ThermoFisher). […]
Luminex. […] The supernatants from the stimulated splenocytes used for the ELISpot assay were analyzed using Eve Technologies' Mouse High Sensitivity 18-Plex Discovery Assay® (MilliporeSigma, Burlington, Massachusetts, USA) according to the manufacturer's protocol. […]

CCCCCC/C=C\CCCC(=O)OCC(O)CN1CCN(CC(O)COC(=O)CCC/C=C\CCCCCC)CCN(CC(O)COC(=O)CCC/C=C\CCCCCC)CCN(CC(O)COC(=O)CCC/C=C\CCCCCC)CCN(CC(O)COC(=O)CCC/C=C\CCCCCC)CCN(CC(O)COC(=O)CCC/C=C\CCCCCC)CC1 (centres unmarked) [AMG1541]
cytokines in media from splenocytes stimulated with MHC-binding peptides (BALB/cJ mice, HA mRNA, dose=1 μg): significant upregulation of IL-4, and IL-5 in both male and female mice and IL-10 in female mice | fold more Spot Forming Units (SFU) relative to SM-102 (IFN-γ ELISpot, MHC-I stimulated splenocytes, female C57B1/6J mice): 6.6 fold

Reference: patent US20250205158A1, “BIODEGRADABLE LIPIDS AND FORMULATIONS FOR DELIVERY OF MRNA” (Massachusetts Institute of Technology, priority 2023, published 2025)
